According to patent publication US11530216B2, “Deuterated colony stimulating factor-1 receptor (CSF-1R) inhibitors” (Genzyme Corporation, priority 2020, dated 2022):
Read-outs that look alike come from different tables or passages of the source.

Assays:
[1] = Human liver cytosol intrinsic clearance; assay type: in vitro ADME; conditions: for CLint scaled at 1 μM / microsomal CLint at 1 μM: human, cytosol
Description: (§1) Incubations were performed in 1 mg/mL human liver cytosol with high aldehyde oxidase (AO)/xanthine oxidase (XO) activity or 2.5 mg/mL human liver S-9 fraction with high AO/XO activity at 1 μM concentration of test compound in duplicate, and the concentration-time course of test compound depletion was determined after withdrawing samples from the incubation at assay time points followed by liquid chromatography with tandem mass spectrometry analysis. An organic solvent was used to terminate incubations.
(§2) These available known AO substrates along with the test compounds were analyzed using three in vitro systems (pooled human liver cytosol, liver S-9 fractions and human hepatocytes isolated from livers perfused with HTK media). Scaled unbound intrinsic clearances were calculated for the test compounds/new chemical entities and were compared to the in vivo unbound intrinsic clearances of the known AO substrates.

[2] = Human liver S-9 intrinsic clearance; assay type: in vitro ADME; conditions: for CLint scaled at 1 μM / microsomal CLint at 1 μM: human; for CLint scaled at 1 μM: s9; for Human Liver S-9 Intrinsic Clearance _1 / Human Liver S-9 Intrinsic Clearance _2: 2.5 mg/mL S-9, 1 μM
Description: as §1, §2

[3] = Human hepatocyte intrinsic clearance; assay type: in vitro ADME; conditions: for CLint scaled at 1 μM / hepatocyte CLint at 1 μM: human, hepatocytes
Description: Incubations were performed in 0.5 million hepatocytes cells/mL at 1 μM concentration of test compound in duplicate with rat, human, dog, monkey, or mouse hepatocytes, and the concentration-time course of test compound depletion was determined after withdrawing samples from the incubation at assay time points followed by liquid chromatography with tandem mass spectrometry analysis. An organic solvent was used to terminate incubations.
as §2

[4] = known AO substrates, human, literature; cited from earlier work
[5] = system: MCP-1 production in primary murine microglial cells; experiment: MCP-1 ELISA, primary mouse microglia after CSF-1 stimulation; assay type: cell-based; conditions: primary murine microglia, 100 ng/mL CSF-1 24 hours
Description: Primary mouse microglia were suspended at a concentration of 5×10^5 cells/mL and 100 μL of this cell suspension was added to the inner 60 wells of three 96-well plates. Microglia cells were allowed to rest overnight at 37° C., 5% CO2. […] Cells were then stimulated with 100 ng/mL recombinant mouse CSF-1 for 24 hours. After stimulation, the culture supernatant was removed from each well and aliquoted into two different 96-well plates for subsequent ELISA assays. Plates were fixed with 4% PFA for future immunocytochemistry analysis.

primary murine microglia = experiment: Immunostaining of primary microglia (Iba1+ area, DAPI+ nuclei) after CSF-1 stimulation; assay type: cell-based, mouse; conditions: for IC50: primary murine microglia, CSF-1 stimulation
Description: Primary mouse microglia were suspended at a concentration of 5×10^5 cells/mL and 100 μL of this cell suspension was added to the inner 60 wells of three 96-well plates. Microglia cells were allowed to rest overnight at 37° C., 5% CO2. […] Cells were then stimulated with 100 ng/mL recombinant mouse CSF-1 for 24 hours. After stimulation, the culture supernatant was removed from each well and aliquoted into two different 96-well plates for subsequent ELISA assays. Plates were fixed with 4% PFA for future immunocytochemistry analysis. Following the stimulation, cells were fixed with 4% PFA for 20 minutes at room temperature. Cells were then rinsed in PBS, washed 3×5 minutes in 0.2% PBT (0.2% Triton X-100 in PBS) and blocked with 10% donkey serum/0.2% PBT for 1 hour at room temperature. […] After staining, plates were imaged on the IN Cell Analyzer 2200 with 9 fields of view acquired per well. […] A one-way ANOVA was used to determine the statistical significance of differences between samples. […] Following a microglial stimulation, immunocytochemistry was completed with Iba1, Ki67, and DAPI to determine microglial morphology, proliferative state, and number. InCell imaging microsope and analysis software was used to quantify Iba1^+ area, and the number of DAPI^+ nuclei within the cultures.

[6] = Human Liver Cytosol Intrinsic Clearance _1
[7] = Human Liver Cytosol Intrinsic Clearance _2
[8] = 1 mg/mL cytosol, 1 μM, replicate 1
[9] = 1 mg/mL cytosol, 1 μM, replicate 2
[10] = 1 mg/mL cytosol, 1 μM, replicate 1, read-out: Human Liver Cytosol Intrinsic Clearance _1
[11] = 1 mg/mL cytosol, 1 μM, replicate 2, read-out: Human Liver Cytosol Intrinsic Clearance _2
[12] = scaled data, read-out: Human Liver Cytosol in vitro scaled Intrinsic Clearance
[13] = s9, 2.5 mg/mL S-9, 1 μM, replicate 1, read-out: Human Liver S-9 Intrinsic Clearance _1
[14] = s9, 2.5 mg/mL S-9, 1 μM, replicate 2, read-out: Human Liver S-9 Intrinsic Clearance _2
[15] = scaled data, read-out: Human Liver S-9 in vitro scaled Intrinsic Clearance
[16] = raw data, AO calibration set, read-out: Human Hepatocytes Intrinsic Clearance
[17] = scaled data, read-out: Human Hepatocytes in vitro scaled Intrinsic Clearance

Row | Structure (SMILES) | CLint scaled at 1 μM [1] | CLint scaled at 1 μM [3] | hepatocyte CLint at 1 μM [3] | Estimated Free in vivo Intrinsic Clearance (Ref) [4] | microsomal CLint at 1 μM [1, 6] | microsomal CLint at 1 μM [1, 7] | Human Liver Cytosol Intrinsic Clearance _1 [1, 8] | Human Liver Cytosol Intrinsic Clearance _2 [1, 9] | Human Liver Cytosol in vitro scaled Intrinsic Clearance ([1]; scaled data) | Human Liver S-9 Intrinsic Clearance _1 ([2]; replicate 1) | Human Liver S-9 Intrinsic Clearance _2 ([2]; replicate 2) | Human Liver S-9 in vitro scaled Intrinsic Clearance ([2]; scaled data) | Human Hepatocytes Intrinsic Clearance ([3]; raw data, AO calibration set) | Human Hepatocytes in vitro scaled Intrinsic Clearance ([3]; scaled data) | other results
1 | N=C(N)NC(=O)c1cnn(-c2cccc3ncccc23)c1C1CC1 [zoniporide] | 12.4 mL/min/kg | 33.8 mL/min/kg | 13.3 µL/min/1e6 cells | 180 | – | – | – | – | – | – | – | – | – | – | CLint scaled at 1 μM [2]: 18.6 mL/min/kg
2 | [2H]c1nc2cccnc2n1C([2H])([2H])c1cc(OC)c2c(c1)O[C@@H](C)[C@H](c1ccc(OC)nc1)O2 (racemic) [Compound 4, (+/−)-3-(((trans)-8-methoxy-2-(6-methoxypyridin-3-yl)-3-methyl-2,3-dihydrobenzo[b][1,4]dioxin-6-yl)methyl-d2)-3H-imidazo[4,5-b]pyridine-2-d] | 3.4 mL/min/kg | 19 mL/min/kg | 7.45 µL/min/1e6 cells | – | 1.2 µL/min/mg | 2.1 µL/min/mg | – | – | – | – | – | – | – | – | –
3 | CC[C@H]1OC(=O)[C@H](C)C(=O)[C@H](C)[C@@H](O[C@@H]2O[C@H](C)C[C@H](N(C)C)[C@H]2O)[C@](C)(OC)C[C@@H](C)C(=O)[C@H](C)[C@H]2N(C3CN([C@H](C)c4ccnc5ncccc45)C3)C(=O)O[C@]12C [PF-945863] | – | – | – | 170 | – | – | 8.2 μL/min/mg protein | 6.9 μL/min/mg protein | 15.4 mL/min/kg | 6.78 μL/min/mg protein | 6.22 μL/min/mg protein | 20.1 mL/min/kg | 10.7 μL/min/10^6 cells | 27.2 mL/min/kg | –
4 | OCCn1cc(-c2cnc3nnn(Cc4ccc5ncccc5c4)c3n2)cn1 [PF-4217903] | – | – | – | 46 | – | – | – | – | – | – | – | – | – | – | microsomal CLint at 1 μM [1, 10]: < 0.7 µL/min/mg; microsomal CLint at 1 μM [1, 11]: < 0.7 µL/min/mg; CLint scaled at 1 μM [1, 12]: < 1.5 mL/min/kg; microsomal CLint at 1 μM [2, 13]: < 1.1 µL/min/mg; microsomal CLint at 1 μM [2, 14]: < 1.1 µL/min/mg; CLint scaled at 1 μM [2, 15]: < 3.4 mL/min/kg; hepatocyte CLint at 1 μM [3, 16]: 4.08 µL/min/1e6 cells; CLint scaled at 1 μM [3, 17]: 10.4 mL/min/kg
5 | CCNC(=O)OC1CCN(c2nncc3cc(OC)c(OC)cc23)CC1 [carbazeran] | – | – | – | 13000 | – | – | – | – | – | – | – | – | – | – | –
6 | [2H]c1ccc2ncn(Cc3cc(OC)c4c(c3)O[C@@H](C)[C@H](c3ccc(OC)nc3)O4)c2n1 (racemic) [Compound 1, (+/−)-3-(((trans)-8-methoxy-2-(6-methoxypyridin-3-yl)-3-methyl-2,3-dihydrobenzo[b][1,4]dioxin-6-yl)methyl)-3H-imidazo[4,5-b]pyridine-5-d] | 6.9 mL/min/kg | 26.2 mL/min/kg | 10.3 µL/min/1e6 cells | – | 3.4 µL/min/mg | 3.3 µL/min/mg | – | – | – | – | – | – | – | – | –
7 | CN(C)CCNC(=O)c1cccc2cc3ccccc3nc12 [DACA] | – | – | – | 3600 | – | – | 46.2 μL/min/mg protein | 46.8 μL/min/mg protein | 96.5 mL/min/kg | 19.0 μL/min/mg protein | 17.7 μL/min/mg protein | 56.5 mL/min/kg | 49.1 μL/min/10^6 cells | 125 mL/min/kg | –
8 | [2H]c1nc2cccnc2n1Cc1cc(OC)c2c(c1)O[C@H](C)[C@@H](c1ccc(OC)nc1)O2 [Compound 5, 3-(((2R,3R)-8-methoxy-2-(6-methoxypyridin-3-yl)-3-methyl-2,3-dihydrobenzo[b][1,4]dioxin-6-yl)methyl)-3H-imidazo[4,5-b]pyridine-2-d] | 2.2 mL/min/kg | 19.7 mL/min/kg | 7.74 µL/min/1e6 cells | – | 0.7 µL/min/mg | 1.4 µL/min/mg | – | – | – | – | – | – | – | – | CLint scaled at 1 μM [2]: 3.6 mL/min/kg; microsomal CLint at 1 μM ([2]; s9, Human Liver S-9 Intrinsic Clearance _1): < 1.1 µL/min/mg; microsomal CLint at 1 μM ([2]; s9, Human Liver S-9 Intrinsic Clearance _2): < 1.1 µL/min/mg
9 | FC(F)(F)c1ccc(CNc2ccc(Cc3c[nH]c4ncc(Cl)cc34)cn2)cn1 [PLX3397, pexidartinib] | – | – | – | – | – | – | – | – | – | – | – | – | – | – | IC50 ([5]; read-out: IC50, MCP-1 production): 17.4 nM; MCP-1 production ([5]; 3.125-400 nM): significantly reduced MCP-1 production in a concentration dependent manner; Iba1+ area (primary murine microglia; CSF-1 stimulation increases Iba1+ area): significantly abrogated this effect in a concentration dependent manner; number of cells (DAPI+ cells) (primary murine microglia; CSF-1 stimulation increases cell number): reduce this number in a concentration dependent manner; IC50 (primary murine microglia; read-out: IC50 for DAPI (DAPI+ cell number)): 68.2 nM; IC50 (primary murine microglia; read-out: IC50 for Iba1 (Iba1+ area)): 50.4 nM
10 | Nc1nc(OCc2ccccc2)c2nc[nH]c2n1 [O6-benzylguanine] | – | – | – | 360 | – | – | 5.6 μL/min/mg protein | 4.9 μL/min/mg protein | 10.7 mL/min/kg | 6.66 μL/min/mg protein | 5.97 μL/min/mg protein | 19.5 mL/min/kg | 13.6 μL/min/10^6 cells | 34.6 mL/min/kg | –
11 | [2H]c1ccc2nc([2H])n(Cc3cc(OC)c4c(c3)O[C@@H](C)[C@H](c3ccc(OC)nc3)O4)c2n1 (racemic) [Compound 2, (+/−)-3-(((trans)-8-methoxy-2-(6-methoxypyridin-3-yl)-3-methyl-2,3-dihydrobenzo[b][1,4]dioxin-6-yl)methyl)-3H-imidazo[4,5-b]pyridine-2,5-d2] | 4.3 mL/min/kg | 16.2 mL/min/kg | 6.36 µL/min/1e6 cells | – | 1.5 µL/min/mg | 1.7 µL/min/mg | – | – | – | – | – | – | – | – | –
12 | CN(Cc1cnc2nc(N)nc(N)c2n1)c1ccc(C(=O)N[C@@H](CCC(=O)O)C(=O)O)cc1 [methotrexate] | – | – | – | 0.44 | – | – | <0.7 μL/min/mg protein | <0.7 μL/min/mg protein | <1.5 mL/min/kg | <1.1 μL/min/mg protein | <1.1 μL/min/mg protein | <3.4 mL/min/kg | <2.7 μL/min/10^6 cells | <6.9 mL/min/kg | –
13 | CCN(C(C)=O)c1cccc(-c2ccnc3c(C#N)cnn23)c1 [zaleplon] | – | – | – | 65 | – | – | – | – | – | – | – | – | – | – | microsomal CLint at 1 μM [1, 10]: 3.1 µL/min/mg; microsomal CLint at 1 μM [1, 11]: 3.4 µL/min/mg; CLint scaled at 1 μM [1, 12]: 6 mL/min/kg; microsomal CLint at 1 μM [2, 13]: 2.11 µL/min/mg; microsomal CLint at 1 μM [2, 14]: 3.32 µL/min/mg; CLint scaled at 1 μM [2, 15]: 7.1 mL/min/kg; hepatocyte CLint at 1 μM [3, 16]: 7.53 µL/min/1e6 cells; CLint scaled at 1 μM [3, 17]: 19.2 mL/min/kg
